{"source": "paper PMC10819888", "about": "“Benzimidazole-Based Derivatives as Apoptotic Antiproliferative Agents: Design, Synthesis, Docking, and Mechanistic Studies” (Molecules, 2024)", "assay_type_in_all_cases": "cell-based, human", "key": {"SN12C": {"test_system": "SN12C", "test": "NCI-60 five-dose assay", "conditions": "SN12C (Renal Cancer), 48 h"}, "A549/ATCC": {"test_system": "A549/ATCC", "test": "NCI-60 five-dose assay", "conditions": "A549/ATCC (Non-Small Cell Lung Cancer), 48 h"}, "SF-539": {"test_system": "SF-539", "test": "NCI-60 five-dose assay", "conditions": "SF-539 (CNS Cancer), 48 h"}, "U251": {"test_system": "U251", "test": "NCI-60 five-dose assay", "conditions": "U251 (CNS Cancer), 48 h"}, "SK-MEL-5": {"test_system": "SK-MEL-5", "test": "NCI-60 five-dose assay", "conditions": "SK-MEL-5 (Melanoma), 48 h"}, "KM12": {"test_system": "KM12", "test": "NCI-60 five-dose assay", "conditions": "KM12 (Colon Cancer), 48 h"}, "SK-OV-3": {"test_system": "SK-OV-3", "test": "NCI-60 five-dose assay", "conditions": "SK-OV-3 (Ovarian Cancer), 48 h"}, "Breast Cancer subpanel": {"test_system": "Breast Cancer subpanel", "test": "NCI-60 five-dose assay, subpanel"}, "HOP-62": {"test_system": "HOP-62", "test": "NCI-60 five-dose assay", "conditions": "HOP-62 (Non-Small Cell Lung Cancer), 48 h"}, "MOLT-4": {"test_system": "MOLT-4", "test": "NCI-60 five-dose assay", "conditions": "MOLT-4 (Leukemia), 48 h"}, "SK-MEL-28": {"test_system": "SK-MEL-28", "test": "NCI-60 five-dose assay", "conditions": "SK-MEL-28 (Melanoma), 48 h"}, "MALME-3M": {"test_system": "MALME-3M", "test": "NCI-60 five-dose assay", "conditions": "MALME-3M (Melanoma), 48 h"}, "Prostate Cancer subpanel": {"test_system": "Prostate Cancer subpanel", "test": "NCI-60 five-dose assay, subpanel"}, "SR": {"test_system": "SR", "test": "NCI-60 five-dose assay", "conditions": "SR (Leukemia), 48 h"}, "HCT-116": {"test_system": "HCT-116", "test": "NCI-60 five-dose assay", "conditions": "HCT-116 (Colon Cancer), 48 h"}, "DU-145": {"test_system": "DU-145", "test": "NCI-60 five-dose assay", "conditions": "DU-145 (Prostate Cancer), 48 h"}, "MCF7": {"test_system": "MCF7", "test": "NCI-60 five-dose assay", "conditions": "MCF7 (Breast Cancer), 48 h"}, "NCI-H522": {"test_system": "NCI-H522", "test": "NCI-60 five-dose assay", "conditions": "NCI-H522 (Non-Small Cell Lung Cancer), 48 h"}, "COLO 205": {"test_system": "COLO 205", "test": "NCI-60 five-dose assay", "conditions": "COLO 205 (Colon Cancer), 48 h"}, "SW-620": {"test_system": "SW-620", "test": "NCI-60 five-dose assay", "conditions": "SW-620 (Colon Cancer), 48 h"}, "MDA-MB-468": {"test_system": "MDA-MB-468", "test": "NCI-60 five-dose assay", "conditions": "MDA-MB-468 (Breast Cancer), 48 h"}, "HS 578T": {"test_system": "HS 578T", "test": "NCI-60 five-dose assay", "conditions": "HS 578T (Breast Cancer), 48 h"}, "A498": {"test_system": "A498", "test": "NCI-60 five-dose assay", "conditions": "A498 (Renal Cancer), 48 h"}, "MDA-MB-435": {"test_system": "MDA-MB-435", "test": "NCI-60 five-dose assay", "conditions": "MDA-MB-435 (Melanoma), 48 h"}, "HT29": {"test_system": "HT29", "test": "NCI-60 five-dose assay", "conditions": "HT29 (Colon Cancer), 48 h"}, "[1]": {"conditions": "Homo sapiens, read-out: GI50 Conc. per Cell Line"}, "[2]": {"conditions": "Homo sapiens, read-out: LC50 (the source's name)"}}, "data": [{"smiles": "O=C(NN=Cc1ccc(Cl)cc1)c1ccc2[nH]c(-c3ccc(Cl)cc3)nc2c1", "note": "[Compound 4e, N′-(4-Chlorobenzylidene)-2-(4-chlorophenyl)-1H-benzimidazole-5-carbohydrazide]", "values": [{"measurement": "GI50", "setting": "SN12C; [1]", "result": 1.96, "unit": "µM"}, {"measurement": "CC50", "setting": "SN12C; [2]", "result": 9.26, "unit": "µM"}, {"measurement": "TGI", "setting": "SN12C", "result": 4.26, "unit": "µM"}, {"measurement": "TGI", "setting": "A549/ATCC", "result": 4.53, "unit": "µM"}, {"measurement": "GI50", "setting": "A549/ATCC; [1]", "result": 2.16, "unit": "µM"}, {"measurement": "CC50", "setting": "A549/ATCC; [2]", "result": 9.52, "unit": "µM"}, {"measurement": "GI50", "setting": "SF-539; [1]", "result": 1.7, "unit": "µM"}, {"measurement": "CC50", "setting": "SF-539; [2]", "result": 5.93, "unit": "µM"}, {"measurement": "TGI", "setting": "SF-539", "result": 3.17, "unit": "µM"}, {"measurement": "GI50", "setting": "U251; Homo sapiens, U-251, read-out: GI50 Conc. per Cell Line", "result": 2.1, "unit": "µM"}, {"measurement": "CC50", "setting": "U251; Homo sapiens, U-251, read-out: LC50 (the source's name)", "result": 8.35, "unit": "µM"}, {"measurement": "TGI", "setting": "U251", "result": 4.18, "unit": "µM"}, {"measurement": "GI50", "setting": "SK-MEL-5; [1]", "result": 1.81, "unit": "µM"}, {"measurement": "CC50", "setting": "SK-MEL-5; [2]", "result": 6.33, "unit": "µM"}, {"measurement": "TGI", "setting": "SK-MEL-5", "result": 3.39, "unit": "µM"}, {"measurement": "GI50", "setting": "KM12; [1]", "result": 2.03, "unit": "µM"}, {"measurement": "CC50", "setting": "KM12; [2]", "result": 9.8, "unit": "µM"}, {"measurement": "TGI", "setting": "KM12", "result": 4.46, "unit": "µM"}, {"measurement": "GI50", "setting": "SK-OV-3; [1]", "result": 1.79, "unit": "µM"}, {"measurement": "CC50", "setting": "SK-OV-3; [2]", "result": 11, "unit": "µM"}, {"measurement": "TGI", "setting": "SK-OV-3", "result": 4.31, "unit": "µM"}, {"measurement": "GI50 Selectivity Ratio (MID a/MID b)", "setting": "Breast Cancer subpanel; Breast Cancer subpanel", "result": 0.79}, {"measurement": "GI50", "setting": "Breast Cancer subpanel; Homo sapiens, Breast Cancer, average sensitivity of all subpanel cell lines, read-out: GI50 Subpanel MID b", "result": 2.27, "unit": "µM"}, {"measurement": "TGI", "setting": "HOP-62", "result": 4.10, "unit": "µM"}, {"measurement": "GI50", "setting": "HOP-62; [1]", "result": 1.8, "unit": "µM"}, {"measurement": "CC50", "setting": "HOP-62; [2]", "result": 9.32, "unit": "µM"}, {"measurement": "GI50", "setting": "MOLT-4; [1]", "result": 1.55, "unit": "µM"}, {"measurement": "CC50", "setting": "MOLT-4; [2]", "result": 28.2, "unit": "µM"}, {"measurement": "TGI", "setting": "MOLT-4", "result": 4.81, "unit": "µM"}, {"measurement": "GI50", "setting": "SK-MEL-28; [1]", "result": 1.58, "unit": "µM"}, {"measurement": "CC50", "setting": "SK-MEL-28; [2]", "result": 5.86, "unit": "µM"}, {"measurement": "TGI", "setting": "SK-MEL-28", "result": 3.04, "unit": "µM"}, {"measurement": "LC50", "setting": "MALME-3M; Homo sapiens", "result": 6.41, "unit": "µM"}, {"measurement": "GI50", "setting": "MALME-3M; [1]", "result": 1.55, "unit": "µM"}, {"measurement": "TGI", "setting": "MALME-3M", "result": 3.15, "unit": "µM"}, {"measurement": "GI50", "setting": "Prostate Cancer subpanel; Homo sapiens, Prostate Cancer, average sensitivity of all subpanel cell lines, read-out: GI50 Subpanel MID b", "result": 1.65, "unit": "µM"}, {"measurement": "GI50 Selectivity Ratio (MID a/MID b)", "setting": "Prostate Cancer subpanel; Prostate Cancer subpanel", "result": 1.08}, {"measurement": "GI50", "setting": "SR; [1]", "result": 1.01, "unit": "µM"}, {"measurement": "CC50", "setting": "SR; [2]", "result": 37, "unit": "µM"}, {"measurement": "TGI", "setting": "SR", "result": 3.95, "unit": "µM"}, {"measurement": "TGI", "setting": "HCT-116", "result": 3.51, "unit": "µM"}, {"measurement": "GI50", "setting": "HCT-116; [1]", "result": 1.45, "unit": "µM"}, {"measurement": "CC50", "setting": "HCT-116; [2]", "result": 8.52, "unit": "µM"}, {"measurement": "TGI", "setting": "DU-145", "result": 3.44, "unit": "µM"}, {"measurement": "GI50", "setting": "DU-145; [1]", "result": 1.76, "unit": "µM"}, {"measurement": "CC50", "setting": "DU-145; [2]", "result": 6.7, "unit": "µM"}, {"measurement": "GI50", "setting": "MCF7; [1]", "result": 1.15, "unit": "µM"}, {"measurement": "CC50", "setting": "MCF7; [2]", "result": 5.73, "unit": "µM"}, {"measurement": "TGI", "setting": "MCF7", "result": 2.56, "unit": "µM"}, {"measurement": "GI50", "setting": "NCI-H522; [1]", "result": 2.24, "unit": "µM"}, {"measurement": "CC50", "setting": "NCI-H522; [2]", "result": 77.9, "unit": "µM"}, {"measurement": "TGI", "setting": "NCI-H522", "result": 5.85, "unit": "µM"}, {"measurement": "TGI", "setting": "COLO 205", "result": 3.25, "unit": "µM"}, {"measurement": "GI50", "setting": "COLO 205; [1]", "result": 1.55, "unit": "µM"}, {"measurement": "CC50", "setting": "COLO 205; [2]", "result": 8.82, "unit": "µM"}, {"measurement": "LC50", "setting": "SW-620; Homo sapiens", "result": 7.43, "unit": "µM"}, {"measurement": "GI50", "setting": "SW-620; [1]", "result": 1.83, "unit": "µM"}, {"measurement": "TGI", "setting": "SW-620", "result": 3.69, "unit": "µM"}, {"measurement": "LC50 (concentration killing 50% of cells)", "setting": "MDA-MB-468; Homo sapiens", "result": 6.36, "unit": "µM"}, {"measurement": "GI50", "setting": "MDA-MB-468; [1]", "result": 1.64, "unit": "µM"}, {"measurement": "TGI", "setting": "MDA-MB-468", "result": 3.23, "unit": "µM"}, {"measurement": "TGI", "setting": "HS 578T", "result": 5.27, "unit": "µM"}, {"measurement": "GI50", "setting": "HS 578T; [1]", "result": 2.28, "unit": "µM"}, {"measurement": "CC50", "setting": "HS 578T; [2]", "result": 63.2, "unit": "µM"}, {"measurement": "TGI", "setting": "A498", "result": 4.94, "unit": "µM"}, {"measurement": "GI50", "setting": "A498; [1]", "result": 1.74, "unit": "µM"}, {"measurement": "CC50", "setting": "A498; [2]", "result": 19.6, "unit": "µM"}, {"measurement": "GI50", "setting": "MDA-MB-435; [1]", "result": 1.73, "unit": "µM"}, {"measurement": "CC50", "setting": "MDA-MB-435; [2]", "result": 6.49, "unit": "µM"}, {"measurement": "TGI", "setting": "MDA-MB-435", "result": 3.35, "unit": "µM"}, {"measurement": "TGI", "setting": "HT29", "result": 5.47, "unit": "µM"}, {"measurement": "GI50", "setting": "HT29; Homo sapiens, HT-29, read-out: GI50 Conc. per Cell Line", "result": 1.97, "unit": "µM"}, {"measurement": "CC50", "setting": "HT29; Homo sapiens, HT-29, read-out: LC50 (the source's name)", "result": 44.1, "unit": "µM"}]}]}
